The values below come from ChEMBL document CHEMBL1140791, “Design and identification of selective HER-2 sheddase inhibitors via P1' manipulation and unconventional P2' perturbations to induce a molecular metamorphosis” (Bioorg Med Chem Lett, 2008).

Calls of active or inactive are those of the source.

One data set concerns the target Stromelysin-1 (Homo sapiens, UniProt P08254). As to the kind of experiment: Binding affinity to MMP3.
For data set [1], the target named is T1, Disintegrin and metalloproteinase domain-containing protein 10 (Homo sapiens, UniProt O14672).
T1 sequence (O14672 whole entry): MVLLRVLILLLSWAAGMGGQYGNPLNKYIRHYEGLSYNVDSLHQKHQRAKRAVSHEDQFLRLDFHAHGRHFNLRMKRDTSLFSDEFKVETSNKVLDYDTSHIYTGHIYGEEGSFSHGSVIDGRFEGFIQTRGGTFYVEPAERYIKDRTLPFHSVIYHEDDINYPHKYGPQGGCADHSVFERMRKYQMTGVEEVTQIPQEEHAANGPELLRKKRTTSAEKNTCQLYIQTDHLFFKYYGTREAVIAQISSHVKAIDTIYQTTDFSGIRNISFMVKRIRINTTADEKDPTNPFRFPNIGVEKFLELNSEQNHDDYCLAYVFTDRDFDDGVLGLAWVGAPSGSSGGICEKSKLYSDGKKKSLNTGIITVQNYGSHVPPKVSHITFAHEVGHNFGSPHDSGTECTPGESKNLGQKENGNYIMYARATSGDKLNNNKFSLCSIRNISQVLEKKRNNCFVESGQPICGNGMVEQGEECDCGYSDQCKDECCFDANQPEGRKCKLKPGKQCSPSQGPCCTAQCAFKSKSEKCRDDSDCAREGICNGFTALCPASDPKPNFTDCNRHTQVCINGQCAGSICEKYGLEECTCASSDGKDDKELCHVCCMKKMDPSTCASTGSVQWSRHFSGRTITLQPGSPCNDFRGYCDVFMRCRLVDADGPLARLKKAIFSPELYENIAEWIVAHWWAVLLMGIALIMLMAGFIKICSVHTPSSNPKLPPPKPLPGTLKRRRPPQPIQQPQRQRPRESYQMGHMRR
Put plainly: (§1) Inhibition of HER2 sheddase in BT474 cells by extracellular domain shedding assay. The class given is cell-based, BT-474.

In data set [2] the target is T1, Disintegrin and metalloproteinase domain-containing protein 10. Put plainly: Binding affinity to ADAM10.
Data set [3] has as its target 72 kDa type IV collagenase (Homo sapiens, UniProt P08253). Put plainly: Binding affinity to MMP2.
The target in data set [4] is Matrix metalloproteinase-9 (Homo sapiens, UniProt P14780). As to the kind of experiment: Binding affinity to MMP9.
Chain of Matrix metalloproteinase-9 (P14780 whole entry): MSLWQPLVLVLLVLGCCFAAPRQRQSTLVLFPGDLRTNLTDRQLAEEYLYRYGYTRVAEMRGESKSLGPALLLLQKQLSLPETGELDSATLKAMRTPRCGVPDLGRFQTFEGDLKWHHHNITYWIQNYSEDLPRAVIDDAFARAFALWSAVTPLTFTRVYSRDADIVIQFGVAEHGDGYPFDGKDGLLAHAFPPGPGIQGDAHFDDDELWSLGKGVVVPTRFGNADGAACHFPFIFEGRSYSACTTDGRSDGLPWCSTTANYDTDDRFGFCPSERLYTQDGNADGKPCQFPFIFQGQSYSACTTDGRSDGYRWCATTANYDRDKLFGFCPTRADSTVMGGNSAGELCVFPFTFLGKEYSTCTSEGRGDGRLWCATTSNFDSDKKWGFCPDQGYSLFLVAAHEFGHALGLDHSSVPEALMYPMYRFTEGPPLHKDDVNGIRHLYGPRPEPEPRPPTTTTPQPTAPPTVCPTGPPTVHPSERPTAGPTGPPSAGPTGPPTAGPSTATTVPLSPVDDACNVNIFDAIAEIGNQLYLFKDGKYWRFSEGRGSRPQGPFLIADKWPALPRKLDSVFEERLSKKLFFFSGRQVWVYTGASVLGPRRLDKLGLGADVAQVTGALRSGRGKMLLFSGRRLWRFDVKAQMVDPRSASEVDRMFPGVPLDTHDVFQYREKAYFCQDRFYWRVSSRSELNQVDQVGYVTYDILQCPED
A further data set addresses T2, Interstitial collagenase (Homo sapiens, UniProt P03956).
T2 sequence (P03956 whole entry): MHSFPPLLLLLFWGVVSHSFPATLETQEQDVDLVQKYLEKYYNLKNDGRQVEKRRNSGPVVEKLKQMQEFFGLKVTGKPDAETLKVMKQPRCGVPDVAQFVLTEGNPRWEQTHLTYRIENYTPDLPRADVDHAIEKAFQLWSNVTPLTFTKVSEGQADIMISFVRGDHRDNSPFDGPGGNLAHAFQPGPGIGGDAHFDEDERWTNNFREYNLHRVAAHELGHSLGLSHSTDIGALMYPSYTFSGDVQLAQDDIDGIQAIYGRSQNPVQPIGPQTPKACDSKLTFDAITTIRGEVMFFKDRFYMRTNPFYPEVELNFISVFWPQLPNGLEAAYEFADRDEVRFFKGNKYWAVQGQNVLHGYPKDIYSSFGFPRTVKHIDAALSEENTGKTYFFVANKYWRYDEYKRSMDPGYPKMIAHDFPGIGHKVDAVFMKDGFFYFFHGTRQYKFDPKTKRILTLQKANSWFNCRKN
Put plainly: Binding affinity to MMP1.

The nature of data set [5]: Selectivity for ADAM10 over MMP1.
The subject of a further data set is Plasma. As to the kind of experiment: Protein binding in human plasma assessed as unbound fraction. In kind it is ADME, cell-free.
A short description of data set [6]: Selectivity for ADAM10 over MMP9.
Data set [7] in a line: Cmax in mouse at 10 mg/kg, po. In kind it is ADME, organism-based. Further details: dose 10 mg/kg, route oral. Conditions: in vivo.
Data set [8] can be described thus: Half life in mouse. The class given is ADME, organism-based. The conditions noted are these: in vivo.
Data set [9] can be described thus: AUC (0 to 24 hrs) in mouse at 10 mg/kg, po. The class given is ADME, organism-based. Set-up: time < 24 hr, dose 10 mg/kg, route oral. The conditions noted are these: plasma.
Data set [10] is described as follows: Selectivity for ADAM10 over MMP3.
Data set [11] can be described thus: Selectivity for ADAM10 over MMP2.
For data set [12], the target named is T3, Disintegrin and metalloproteinase domain-containing protein 10 (Homo sapiens) (UniProt O14672).
T3 sequence (whole entry): T1 sequence (O14672 whole entry)
Described as §1. The class given is cell-based. The conditions noted are these: BT-474.

Chain of Stromelysin-1 (P08254 whole entry, the tested form may be a part): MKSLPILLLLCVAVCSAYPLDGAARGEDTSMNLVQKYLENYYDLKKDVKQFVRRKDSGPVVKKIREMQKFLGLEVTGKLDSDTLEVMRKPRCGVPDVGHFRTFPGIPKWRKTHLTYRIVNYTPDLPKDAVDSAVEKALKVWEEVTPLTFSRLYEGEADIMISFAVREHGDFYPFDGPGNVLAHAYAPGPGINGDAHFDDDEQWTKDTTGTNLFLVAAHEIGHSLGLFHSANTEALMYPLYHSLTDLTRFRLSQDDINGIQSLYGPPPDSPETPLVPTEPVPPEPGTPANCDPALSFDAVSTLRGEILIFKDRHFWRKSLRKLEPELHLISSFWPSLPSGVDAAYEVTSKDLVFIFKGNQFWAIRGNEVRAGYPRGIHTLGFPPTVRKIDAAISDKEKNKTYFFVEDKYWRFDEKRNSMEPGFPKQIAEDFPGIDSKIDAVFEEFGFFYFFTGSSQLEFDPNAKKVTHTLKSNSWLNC
Chain of 72 kDa type IV collagenase (P08253 whole entry): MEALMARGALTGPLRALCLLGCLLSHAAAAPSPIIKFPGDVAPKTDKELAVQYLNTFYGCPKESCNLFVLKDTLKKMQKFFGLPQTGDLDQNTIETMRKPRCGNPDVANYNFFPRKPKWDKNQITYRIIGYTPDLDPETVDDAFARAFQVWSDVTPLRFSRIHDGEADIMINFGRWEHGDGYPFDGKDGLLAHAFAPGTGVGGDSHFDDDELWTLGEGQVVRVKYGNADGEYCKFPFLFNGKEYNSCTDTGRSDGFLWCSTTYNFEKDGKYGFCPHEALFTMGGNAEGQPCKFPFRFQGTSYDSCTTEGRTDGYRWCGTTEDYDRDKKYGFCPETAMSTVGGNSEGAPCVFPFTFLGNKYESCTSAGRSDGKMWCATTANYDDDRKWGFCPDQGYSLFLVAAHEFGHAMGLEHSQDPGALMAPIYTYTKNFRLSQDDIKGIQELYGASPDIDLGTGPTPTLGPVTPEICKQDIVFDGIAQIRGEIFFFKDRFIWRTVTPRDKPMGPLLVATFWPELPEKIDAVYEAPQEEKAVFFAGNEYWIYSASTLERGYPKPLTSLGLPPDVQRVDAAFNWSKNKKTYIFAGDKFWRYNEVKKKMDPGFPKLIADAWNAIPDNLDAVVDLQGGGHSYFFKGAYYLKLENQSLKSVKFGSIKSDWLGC

In general, IC50 refers to the concentration that gives 50% inhibition. A lower IC50 goes with greater potency. For the molecule `O=C(NO)[C@H]1CC2(CC2)CN[C@@H]1C(=O)N1CC=C(c2cc(F)cc(F)c2)CC1`, the IC50 on Stromelysin-1 was over 5 µM; in [1], 24 nM; in [2], 15 nM; in [3], 14 nM; in data set [4] it was 916 nM; on Interstitial collagenase it was over 5 µM.
In the case of `CS(=O)(=O)N1CC2(CC2)C[C@H](C(=O)NO)[C@H]1C(=O)N1CCN(c2ccccc2)CC1`, the IC50 at Stromelysin-1 was over 5 µM; in [1] it was 45 nM; in data set [2], 27 nM; in [3] it was 86 nM; in data set [4], 1500 nM; on Interstitial collagenase, over 5 µM.
On to `Cc1cccc(C2=CCN(C(=O)[C@H]3NCC4(CC4)C[C@@H]3C(=O)NO)CC2)c1`, for which the IC50 at Stromelysin-1 was 0.359 µM; in data set [1], 42 nM; in [2], 25 nM; in data set [3], 13 nM; in data set [4] it was 111 nM; on Interstitial collagenase it was 1.89 µM.
With `O=C(NO)[C@H]1CC2(CC2)CN(C(=O)OC2CCOCC2)[C@@H]1C(=O)N1CCN(c2ccccc2)CC1`, the IC50 on Stromelysin-1 was 4 µM; in data set [1] it was 26 nM; in [2], 37 nM; in data set [3], 106 nM; in data set [4], 2620 nM; at Interstitial collagenase, over 5 µM.
Consider `Cc1cccc(C2CCN(C(=O)[C@H]3NCC4(CC4)C[C@@H]3C(=O)NO)CC2)c1`, for which the IC50 is over 5 µM at Stromelysin-1; 689 nM in [1]; 194 nM in data set [2]; 391 nM in [3]; 604 nM in [4]; over 5 µM at Interstitial collagenase.
As for `CC(C)COC(=O)N1CC2(CC2)C[C@H](C(=O)NO)[C@H]1C(=O)N1CC=C(c2ccccc2)CC1`, the concentration for half-maximal inhibition (IC50) at Stromelysin-1 is 2.6 µM; in data set [1], 150 nM; in [2], 19 nM; in data set [3] it was 35 nM; in [4], 451 nM; at Interstitial collagenase, over 5 µM.
For the molecule `CS(=O)(=O)N1CC2(CC2)C[C@H](C(=O)NO)[C@H]1C(=O)N1CC=C(c2ccccc2)CC1`, the IC50 at Stromelysin-1 was over 5 µM; in data set [1], 93 nM; in [2], 51 nM; in data set [3] it was 53 nM; in data set [4], 677 nM; at Interstitial collagenase it was over 5 µM.
As to `O=C(NO)[C@H]1CC2(CC2)CN(C(=O)OCc2ccccc2)[C@@H]1C(=O)N1CC=C(c2ccccc2)CC1`, the IC50 is 1.67 µM at Stromelysin-1; 431 nM in [1]; 34 nM in data set [2]; 37 nM in data set [3]; 309 nM in [4]; over 5 µM at Interstitial collagenase.
With `O=C(NO)[C@H]1CC2(CC2)CN[C@@H]1C(=O)N1CC=C(c2cccc(C3CC3)c2)CC1`, the IC50 in [2] turned out to be 48 nM; in data set [3] it was 24 nM.
Consider `CCc1cccc(C2=CCN(C(=O)[C@H]3NCC4(CC4)C[C@@H]3C(=O)NO)CC2)c1`, for which the IC50 was 240 nM in data set [1]; 33 nM in [2]; 21 nM in data set [3]; 190 nM in data set [4]; over 5 µM at Interstitial collagenase.
With `Cc1cc(C)cc(C2=CCN(C(=O)[C@H]3NCC4(CC4)C[C@@H]3C(=O)NO)CC2)c1`, the IC50 on Stromelysin-1 is over 5 µM; in [1], 86 nM; in data set [2] it was 85 nM; in data set [3] it was 433 nM; in data set [4] it was over 5000 nM; on Interstitial collagenase, over 5 µM.
For the molecule `CC(C)c1cccc(C2CCN(C(=O)[C@H]3NCC4(CC4)C[C@@H]3C(=O)NO)CC2)c1`, the IC50 was over 5 µM at Stromelysin-1, 139 nM in data set [1], 16 nM in data set [2] and 1390 nM in [3].
In the case of `Cc1cc(C2=CCN(C(=O)[C@H]3NCC4(CC4)C[C@@H]3C(=O)NO)CC2)cc(C)c1C#N`, the IC50 at Stromelysin-1 was 3.5 µM; in [1], 129 nM; in data set [2], 28 nM; in [3], 159 nM; in [4], over 5000 nM; on Interstitial collagenase, over 5 µM.
Take `O=C(NO)[C@H]1CC2(CC2)CN[C@@H]1C(=O)N1CCC(c2ccccc2)C1` (some centres undefined): the IC50 was over 3 µM at Stromelysin-1, 960 nM in [3], over 3000 nM in data set [4] and over 5 µM on Interstitial collagenase.
On to `COc1cccc(C2=CCN(C(=O)[C@H]3NCC4(CC4)C[C@@H]3C(=O)NO)CC2)c1`, for which the IC50 in data set [1] is 194 nM; in data set [2] it was 40 nM; in data set [3], 50 nM; in data set [4], 110 nM; at Interstitial collagenase, over 5 µM.
As for `O=C(NO)[C@H]1CC2(CC2)CN[C@@H]1C(=O)N1CCN(c2cccc(Cl)c2)CC1`, the IC50 in [1] turned out to be 42 nM; in [2], 14 nM; in data set [3], 32 nM.
In the same order, the values of `Cc1cc(N2CCN(C(=O)[C@H]3NCC4(CC4)C[C@@H]3C(=O)NO)CC2)ccc1C#N` are 594 nM, 38 nM and under 5 nM.
As a reminder, the Cmax is the maximum level reached in the sampled fluid or tissue. One may read the half-life as the time needed for the level to fall by half in the phase considered. The term AUC(0-t) denotes the area under the concentration-time curve up to a stated or last time point. High values mean more exposure, low ones less exposure. Take `COC(=O)N1CC2(CC2)C[C@H](C(=O)NO)[C@H]1C(=O)N1CC=C(c2ccccc2)C1`: the Ratio IC50 in [5] came to 2; in data set [6] it was 40; in data set [10], 11; in [11] it was 37. Besides, the IC50 is over 5 µM on Stromelysin-1; 34 nM in [1]; 26 nM in [2]; 488 nM in [3]; 3050 nM in [4]; over 5 µM on Interstitial collagenase. Besides, the PPB in the data set on Plasma amounted to 34%. The molecule also gave a Cmax in [7] of 3000 nM. The half-life in [8] is 108 min. In [9], this molecule registered an AUC(0-t) at 24 h of 2.8 µM·h.
Take `COC(=O)N1CC2(CC2)C[C@H](C(=O)NO)[C@H]1C(=O)N1CCC(c2ccccc2)C1` (some centres undefined): the IC50 in data set [1] is 289 nM; in data set [2], 81 nM; in data set [3] it was over 5000 nM.
In the same order, the values of `CC(C)c1cc(C2=CCN(C(=O)[C@H]3NCC4(CC4)C[C@@H]3C(=O)NO)CC2)ccc1C#N` are 902 nM, 154 nM and 2500 nM.
With `Cc1cccc(N2CCN(C(=O)[C@H]3NCC4(CC4)C[C@@H]3C(=O)NO)CC2)c1`, the IC50 at Stromelysin-1 was over 1 µM; in data set [1], 184 nM; in data set [2] it was 187 nM; in [3], 63 nM; in data set [4] it was 1270 nM; on Interstitial collagenase, over 5 µM.
Consider `CC(C)c1cccc(C2=CCN(C(=O)[C@H]3NCC4(CC4)C[C@@H]3C(=O)NO)CC2)c1`, for which the IC50 at Stromelysin-1 was 5 µM; in data set [1], 229 nM; in data set [2], 73 nM; in [3], 1100 nM; in data set [4], 2500 nM; on Interstitial collagenase, over 5 µM. The values for the Ratio IC50 in data set [6], in data set [10] and in [11] were 10, 2 and over 15, respectively.
In turn, `O=C(NO)[C@H]1CC2(CC2)CN[C@@H]1C(=O)N1CCC(c2ccccc2)CC1` yielded an IC50 in data set [1] of 137 nM.
`O=C(NO)[C@H]1CC2(CC2)CN[C@@H]1C(=O)N1CC=C(c2cc(Cl)cc(Cl)c2)CC1`: the outcome in [12] was inactive. The IC50 was determined as 99 nM in [2] and 5000 nM in data set [3].
As for `COC(=O)N1CC2(CC2)C[C@H](C(=O)NO)[C@H]1C(=O)N1CCC(c2ccccc2)CC1`, the values for the IC50 in data set [1], in [2] and in data set [3] were 169 nM, 19 nM and 472 nM, respectively.
In [1], `O=C(NO)[C@H]1CC2(CC2)CN[C@@H]1C(=O)N1CC=C(c2ccccc2)C1` came in with an IC50 of 13 nM.
For the molecule `CC(=O)N1CC2(CC2)C[C@H](C(=O)NO)[C@H]1C(=O)N1CC=C(c2ccccc2)CC1`, the IC50 on Stromelysin-1 is over 5 µM; in [1] it was 72 nM; in data set [2], 40 nM; in [3], 50 nM; in data set [4], 160 nM; on Interstitial collagenase it was over 5 µM.
Turning to `CC(C)c1cccc(N2CCN(C(=O)[C@H]3NCC4(CC4)C[C@@H]3C(=O)NO)CC2)c1`, in data set [12], the result was inactive. The IC50 in data set [2] was 1100 nM; in data set [3] it was over 5000 nM; on Interstitial collagenase it was over 5 µM.
